Measurements: US20200278355A1, “CONJUGATED PROTEINS AND USES THEREOF” (THE SCRIPPS RESEARCH INSTITUTE, priority 2017, published 2020)

Assays:
Format in all cases: cell-based
Conditions in all cases: 20 μM
[1] = target: T1, NR0B1 (Homo sapiens, UniProt P51843); assay: ABPP-SILAC BPK-29yne competition in H460 cells: NR0B1
T1 construct: H460 cells or H460 cells expressing luciferase in a 10 cm plate were incubated with indicated compounds; endogenous in cells; host or cells: H460 (NSCLC, KEAP1-mutant)
T1 sequence (P51843 1-470): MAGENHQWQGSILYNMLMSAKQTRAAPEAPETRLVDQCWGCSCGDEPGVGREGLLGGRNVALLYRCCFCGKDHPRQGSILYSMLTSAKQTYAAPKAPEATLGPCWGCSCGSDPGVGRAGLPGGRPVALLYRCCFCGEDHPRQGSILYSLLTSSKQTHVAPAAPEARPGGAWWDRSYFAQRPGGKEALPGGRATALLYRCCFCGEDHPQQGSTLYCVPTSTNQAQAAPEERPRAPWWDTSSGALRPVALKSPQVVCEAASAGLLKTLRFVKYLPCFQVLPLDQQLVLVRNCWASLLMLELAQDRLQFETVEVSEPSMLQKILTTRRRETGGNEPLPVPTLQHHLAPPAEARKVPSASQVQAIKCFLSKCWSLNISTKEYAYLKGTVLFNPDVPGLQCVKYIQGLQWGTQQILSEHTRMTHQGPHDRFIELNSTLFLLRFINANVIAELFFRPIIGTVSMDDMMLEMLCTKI
Procedure: (§1) Isotopically labeled H460 cell lines were generated as described above. Light and heavy cells were treated with compounds (20 μM) or DMSO, respectively, for 3 h, followed by labeling with the BPK-29yne (5 μM) for 30 min. Cells were washed once ice-cold PBS and lysed in 1% Triton 100-X dissolved in PBS with protease inhibitors (Sigma) by sonication. Lysate was adjusted to 1.5 mg ml^−1 in 500 μL. Samples were conjugated by CuAAC to Biotin-PEG4-azide (5 μL of 10 mM stocks in DMSO, final concentration=100 μM). CuAAC “click” mix contained TCEP, TBTA ligand and CuSO4 as detailed for isoTOP-ABPP sample preparation. Samples were further processed as detailed in: isoTOP-ABPP streptavidin enrichment and isoTOP-ABPP trypsin TEV digestion with the following exception: after overnight incubation at 37° C. with trypsin, tryptic digests were separated from the beads with Micro Bio-Spin columns (Bio-Rad) by centrifugation (1,000×g, 1 min). Beads were rinsed once with water (200 μL) and combined with tryptic digests. […]
(§2) The MS2 spectra data were extracted and searched using RAW Convertor and ProLuCID algorithm as described in isoTOP-ABPP peptide and protein quantification. […] Ratios of heavy/light (DMSO/test compound) peaks were calculated using in-house CIMAGE software. […] The mean R values and standard deviation for multiple biological experiments were calculated from the average ratios from each replicate. […]

[2] = target: T2, SELO (Homo sapiens, UniProt Q9BVL4); assay: ABPP-SILAC BPK-29yne competition in H460 cells: SELO
T2 construct: Isotopically labeled H460 cell lines were generated as described above; endogenous in cells; host or cells: H460 (SILAC-labelled)
T2 sequence (Q9BVL4 116-669): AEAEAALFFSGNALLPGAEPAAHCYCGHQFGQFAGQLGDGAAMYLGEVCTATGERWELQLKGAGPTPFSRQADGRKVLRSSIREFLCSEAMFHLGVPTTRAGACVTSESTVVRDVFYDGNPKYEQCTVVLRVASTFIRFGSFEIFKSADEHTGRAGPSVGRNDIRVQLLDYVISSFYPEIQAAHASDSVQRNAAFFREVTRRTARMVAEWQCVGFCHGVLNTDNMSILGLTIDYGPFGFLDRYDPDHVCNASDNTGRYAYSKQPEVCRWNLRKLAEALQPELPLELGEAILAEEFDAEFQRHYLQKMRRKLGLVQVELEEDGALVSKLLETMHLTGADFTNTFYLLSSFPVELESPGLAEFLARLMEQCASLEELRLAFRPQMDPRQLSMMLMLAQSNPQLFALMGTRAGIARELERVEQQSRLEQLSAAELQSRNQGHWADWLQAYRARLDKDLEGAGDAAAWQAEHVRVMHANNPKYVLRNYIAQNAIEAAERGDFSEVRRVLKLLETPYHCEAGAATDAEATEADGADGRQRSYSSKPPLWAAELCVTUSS
Procedure: as §1, §2

[3] = target: T3, NT5DC1 (Homo sapiens, UniProt Q5TFE4); assay: ABPP-SILAC BPK-29yne competition in H460 cells: NT5DC1
T3 construct: Isotopically labeled H460 cell lines were generated as described above; endogenous in cells; host or cells: H460 (SILAC-labelled)
T3 sequence (Q5TFE4 whole entry): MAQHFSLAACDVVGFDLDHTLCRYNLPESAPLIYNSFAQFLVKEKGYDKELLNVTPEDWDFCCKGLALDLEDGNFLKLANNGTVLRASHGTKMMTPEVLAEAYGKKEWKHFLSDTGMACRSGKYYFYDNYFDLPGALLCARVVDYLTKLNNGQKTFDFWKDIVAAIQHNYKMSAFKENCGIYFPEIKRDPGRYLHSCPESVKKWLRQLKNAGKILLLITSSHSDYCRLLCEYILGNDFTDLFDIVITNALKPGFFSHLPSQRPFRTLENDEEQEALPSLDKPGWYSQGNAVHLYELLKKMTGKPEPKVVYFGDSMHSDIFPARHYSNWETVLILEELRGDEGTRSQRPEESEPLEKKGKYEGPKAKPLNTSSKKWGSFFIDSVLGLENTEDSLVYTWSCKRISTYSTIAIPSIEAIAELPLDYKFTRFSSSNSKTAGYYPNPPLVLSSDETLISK
Procedure: as §1, §2

[4] = target: T4, PTGES2 (Homo sapiens, UniProt Q9H7Z7); assay: ABPP-SILAC BPK-29yne competition in H460 cells: PTGES2
T4 construct: Isotopically labeled H460 cell lines were generated as described above; endogenous in cells; host or cells: H460 (SILAC-labelled)
T4 sequence (Q9H7Z7 whole entry): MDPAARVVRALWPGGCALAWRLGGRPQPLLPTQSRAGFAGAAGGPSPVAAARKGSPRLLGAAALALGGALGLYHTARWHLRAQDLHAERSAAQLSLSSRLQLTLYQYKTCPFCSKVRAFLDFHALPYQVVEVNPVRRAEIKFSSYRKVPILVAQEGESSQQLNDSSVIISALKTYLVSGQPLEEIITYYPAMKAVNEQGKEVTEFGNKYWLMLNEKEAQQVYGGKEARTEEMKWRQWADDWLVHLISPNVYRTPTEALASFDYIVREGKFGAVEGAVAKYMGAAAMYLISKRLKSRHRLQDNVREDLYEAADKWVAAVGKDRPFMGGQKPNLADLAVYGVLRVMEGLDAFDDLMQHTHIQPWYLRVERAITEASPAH
Procedure: as §1, §2

O=C(c1ccc(N2CCOCC2)cc1)N1CCCC(N(Cc2ccccc2)C(=O)CCl)CC1 (stereo not shown) [BPK-29, N-benzyl-2-chloro-N-(1-(4-morpholinobenzoyl)azepan-4-yl)acetamide]
BPK-29-competed BPK-29yne analysis [1]: Yes (Competed defined as showing R value ≥ 2.5 at 20 μM of test compound) | BPK-29-competed BPK-29yne analysis [2]: Yes (Competed defined as showing R value ≥ 2.5 at 20 μM of test compound) | BPK-29-competed BPK-29yne analysis [3]: Yes (Competed defined as showing R value ≥ 2.5 at 20 μM of test compound) | BPK-29-competed BPK-29yne analysis [4]: Yes (Competed defined as showing R value ≥ 2.5 at 20 μM of test compound)
